Data set [1] has as its system glioblastomoa cell line U87. The experiment in a line: Neurosphere formation, U87. The data set is classed as cell-based. The conditions noted are these: lowest dose tested 0.5 μM. Here is the method: (§1) The activity of the three test compounds to inhibit neurosphere formation was also tested in a neuroblastoma cell line SHSY5Y and a glioblastomoa cell line U87. All three compounds attenuated neurosphere formation in both cell lines, to varying degrees of efficacy (FIG. 2A,B). […] None of the compounds affected cell viability.

Data set [2] deals with neuroblastoma cell line SHSY5Y. The experiment in a line: Neurosphere formation, SHSY5Y. Type of data set: cell-based. Particulars: lowest dose tested 0.5 μM. How it is done:
as §1

The subject of data set [3] is Xenopus oocytes. The experiment in a line: Xenopus oocyte maturation assay. Type of data set: cell-based. The conditions noted are these: for Xenopus Oocyte Maturation Assay, With Progesterone: test compound 100 μM, progesterone 2 μg/mL, inhibitor = slowed rate of progesterone-dependent GVBD by 20% or more. The text has this:
An in vivo Xenopus oocyte maturation assay was used to screen the compounds for their ability to modulate the activity of cell cycle control proteins, mRNA translational control proteins, and/or proteins involved in signaling pathways. In this assay, oocyte maturation (or cell cycle progression) is monitored phenotypically using an image capture system. Oocyte maturation is correlated with the appearance of a white spot at the animal pole of the darkly pigmented animal hemisphere of the oocyte. The white spot appears because the germinal vesicle (i.e., the large nucleus of the oocyte) migrates to the animal pole prior to meiotic germinal vesicle breakdown (GVBD).
Immature stage VI Xenopus oocytes were transferred to wells of a flat bottom 96-well plate containing about 178 μL of L15 culture media. The oocytes were transferred using wide mouth 200 μL pipette tips with minimal transfer of culture medium (e.g., about 20 μL). Generally, the oocytes oriented with the pigmented animal hemisphere facing up due to the higher density of the yolk-containing vegetal hemisphere. Incorrectly orientated oocytes were gently manipulated using a drawn-out capillary tube to rotate them into the correct orientation.
Forty-four test compounds were dissolved in DMSO to make 100× stock solutions. The test compounds were added to the appropriate wells at a final concentration of 100 μM (and 1% DMSO). Control oocytes were exposed to 1% DMSO only (generally the first and last wells of a plate contained the untreated, control oocytes). Sixteen hours later, progesterone was added to each well to stimulate progesterone-dependent oocyte maturation. For this, 2 μL of 1000× stock solution (2 mg/mL in ethanol) was added to the appropriate wells to yield a final concentration of 2 μg/mL. The rate of maturation in the control oocytes (i.e., those in the first and last wells) served as an intra-assay control for time taken for progesterone addition across the multi-well plate.
The 96-well plate was imaged from above (i.e., top-down) using a 36-megapixel Nikon D800 SLR camera with an AF Micro Nikkor 60 mm, f/2.8 lens, mounted on a dedicated copy stand (with adjustable flanking light sources). The plate was imaged prior to and after addition of progesterone (i.e., images were taken at regular intervals over a period of 7 hours). The high resolution images were digitally zoomed after capture to analyze the maturation status of oocytes in individual wells of the plate. Test compounds that slowed the rate of progesterone-dependent GVBD by 20% or more were classified as inhibitors (assessed relative to the time 50% of the population of control, vehicle treated oocytes had undergone GVBD (GVBD50)).
To determine whether the test compounds were able to activate oocyte maturation in a progesterone-independent manner, oocytes were incubated in the presence of the test compound (dissolved in DMSO) or DMSO only. The oocytes were imaged at regular intervals for the evidence of GVBD, or subsets of oocytes were removed at predetermined times and the activation status of key cell cycle control proteins (e.g., pMAP kinase, pCcd2, etc.) was analyzed by Western blotting. For example, activation of pMAP kinase is associated with increased phosphorylation whereas activation of pCdc2 is associated with decreased phosphorylation. Compounds were classified as an activator if they were able to induce GVBD in the absence of added progesterone. Further, compounds were classified as accelerators if they accelerated the rate of progesterone-stimulated GVBD, but were unable to induce GVBD in the absence of progesterone. The criteria for test compounds to be considered accelerators is that they must increase the rate of progesterone-dependent GVBD by 20% or more at one dose (assessed relative to the time 50% of the population of control, vehicle treated oocytes had undergone GVBD (GVBD50)).

The test system of data set [4] is MCF-7 cells. The experiment in a line: Mammosphere formation, MCF-7. The conditions noted are these: compound present first 3 days, scored day 14 (P2), 50, 5 and 0.5 μM. Type of data set: cell-based. From the text: Mammosphere culture growth presents a useful indicator of the presence of breast cancer cells with stem cell-like properties. Breast cancer cell lines grown as mammospheres (under non-adherent plating conditions) recapitulate the three-dimensional organization of tumors. Importantly, assessment of stem cell self-renewal capacity can be achieved through dispersion of mammospheres to single cells and subsequent limited dilution replating. To determine whether PNR-5-46, PNR-5-41, or JVM-20 inhibited mammosphere formation in this system, […], and then cultured in the absence of the test compound. At day 7, mammospheres were collected, dispersed to single cells and replated at limiting dilution (P1). Spheroids were scored at day 14 (P2). Mammosphere forming units (MFUs) are defined as spheroid bodies >100 μm (MCF-7 cells) or >65 μm (MDA MB231 cells) diameter after 7 (P1) or 14 (P2) days growth in non-adherent culture.

Take `C[C@@]12CCC=C(CO)C3C[C@H]4/C(=C\c5ccccc5)C(=O)O[C@@H]4[C@@]31O2` (stereo partly shown): the melting point was 115 to 117 °C.

Consider “13-(4-aminophenyl)parthenolide [PNR-5-41]”, for which the “neurosphere formation / stem cell self-renewal” value in data set [1] and in data set [2] was “Significant inhibition” in each case. The “Xenopus Oocyte Maturation Assay, With Progesterone” value in data set [3] is “Inhibitor”. Also, the “mammosphere formation relative to DMSO-treated control cells” value in data set [4] is on record as “did not”.

As to `C/C1=C\CC[C@@]2(C)O[C@H]2[C@H]2OC(=O)[C@@H](CNc3nc4ccccc4[nH]3)[C@@H]2CC1` [JVM-9, 13-(2-aminobenzimidazole)parthenolide], the “Xenopus Oocyte Maturation Assay, Without Progesterone” value in data set [3] (no progesterone, activator = able to induce GVBD in the absence of added progesterone) is “Activator”.

Regarding `CC1=CCCC2(C)OC2C2OC(=O)C(CNCCN3CCOCC3)C2CC1` (stereo not shown) [JVM-11, 13-(aminoethylmorpholino)parthenolide], the “Xenopus Oocyte Maturation Assay, With Progesterone” value in data set [3] was “Inhibitor”.

These data come from US20160083397A1, “PARTHENOLIDE DERIVATIVES AND THEIR MODULATION OF PROCESSES CONTROLLED BY REGULATED TRANSLATION” (THE BOARD OF TRUSTEES OF THE UNIVERSITY OF ARKANSAS, priority 2013, published 2016).
